Reference: patent publication US11117902B2, “Selective estrogen receptor degraders” (Eli Lilly and Company, priority 2018, dated 2021)

What was measured:
ERα receptor = ERα receptor (Homo sapiens (Human), UniProt P03372); experiment: PRα induction assay in MCF7 cells (ERα agonism); format: cell-based; conditions: MCF7 breast cancer cells
Description: PRα Induction Assay in MCF7 Cells
The purpose of the following PRα induction assay is to determine whether a test compound has agonistic activity against ERα receptor (an agonist would be expected to activate the receptor).
Culture MCF7 (purchased from ATCC HTB-22) in DMEM media supplemented with 10% FBS, 0.01 mg/mL human insulin 1 and 1% penicillin/streptomycin antibiotics and plate the cells (prior to becoming 70% confluent) in 384-well flat-bottom plates at a density of 4,000 cells per well in 20 μL volume in DMEM phenol red free media containing 10% FBS (charcoal stripped). Incubate the cells overnight in a cell culture incubator (5% CO2, 95% relative humidity at 37° C.) and allow the cells to attach to the plate. The following day, dose the cells with test compound. Use an Echo 555 acoustic dispenser to prepare compound serial dilutions (1:3) in a range from 6 μM to 0.0003 μM. Dose the cells with the addition of the test compound (5 μL) from the serial dilution plate to the cell plate producing a final DMSO concentration of 0.2% with a final concentration of the test compound dose range between 2 and 0.0001 μM. For the maximum point use media containing 0.2% of DMSO and for the minimum point, use fulvestrant diluted at […] final concentrations in the growth media containing 0.2% DMSO. After dosing with the test compound, incubate the cell plates at 37° C. and 5% CO2 for 24 hours. Fix the cells by adding 14% para-formaldehyde (10 μL) for 30 minutes at room temperature. Wash cells once with PBS (20 μL) and incubate with PBS (20 μL) containing 0.5% (v/v) TWEEN® 20 for 1 hour. […]
The following day, wash cells with PBS 0.05% TWEEN® 20 (2×20 μL) and incubate with secondary antibody (20 μL/well) (1:1000 dilution, Goat anti-rabbit IgM ALEXA FLUOR™ 488) in PBS 1% BSA for 105 minutes at room temperature. […] Scan plates with ACUMEN EXPLORER™ [Laser-scanning fluorescence microplate cytometer manufactured by TTP LABTECH LTD] to measure PRα. […]

[1] = Rat oral bioavailability assay; format: in vivo; conditions: plasma, Sprague-Dawley rats, IV 1 mg/kg, PO 10 mg/kg, read-out: oral bioavailability (% F)
Description: Rat Oral Bioavailability Assay
Administer the test compound to Sprague-Dawley rats IV at 1 mg/kg (using vehicles of either: 20% CAPTISOL® in 25 mM sodium phosphate buffer, pH2 quantum satis; or 25% DMA, 15% EtOH, 10% propylene glycol, 25% 2-pyrrolidone, and 25% purified water) and PO at 10 mg/kg (using a vehicle of 1% hydroxyethyl cellulose, 0.25% polysorbate 80, 0.05% Antifoam 1510-US, and purified water quantum satis). Collect serial blood samples at 0.08, 0.25, 0.5, 1, 2, 4, 8, and 12 hours post dose for IV bolus and at 0.25, 0.5, 1, 2, 4, 8, and 12 hours post dose after oral administration. After treatment with an EDTA […], obtain plasma by centrifugation and store at −70° C. until analysis by LC-MS/MS. Determine the test compound concentration in plasma and upload into the Watson LIMS™ system where noncompartmental analysis is used to calculate Area Under the Curve (AUC) for both IV and PO arms. Calculate oral bioavailability (% F) via the following equation, % F=(AUCPO×DoseIV)/(AUCIV×DosePO)×100.

Sequence of ERα receptor (P03372 whole entry): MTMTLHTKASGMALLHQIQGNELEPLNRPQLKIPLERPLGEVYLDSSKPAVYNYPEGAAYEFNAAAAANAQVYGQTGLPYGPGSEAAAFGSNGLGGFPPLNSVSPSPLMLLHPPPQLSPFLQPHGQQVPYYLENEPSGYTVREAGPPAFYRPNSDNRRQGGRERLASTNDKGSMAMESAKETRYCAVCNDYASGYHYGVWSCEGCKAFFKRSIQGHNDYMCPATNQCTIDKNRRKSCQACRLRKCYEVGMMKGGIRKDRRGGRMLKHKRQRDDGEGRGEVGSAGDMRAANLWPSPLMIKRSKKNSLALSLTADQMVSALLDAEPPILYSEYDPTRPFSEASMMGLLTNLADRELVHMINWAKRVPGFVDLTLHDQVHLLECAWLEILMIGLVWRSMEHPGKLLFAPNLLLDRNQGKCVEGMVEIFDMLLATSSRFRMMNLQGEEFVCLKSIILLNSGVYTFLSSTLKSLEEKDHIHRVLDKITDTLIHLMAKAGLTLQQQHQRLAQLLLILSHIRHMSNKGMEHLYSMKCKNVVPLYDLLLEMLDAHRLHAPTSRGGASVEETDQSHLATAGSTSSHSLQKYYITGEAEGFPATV

SMILES	agonistic activity (PRα induction) (ERα receptor)	bioavailability [1]
Oc1ccc2c3c(cnc2c1)-c1ccc(C(F)(F)F)cc1OC3c1ccc(OCCN2CC(CF)C2)cc1 (racemic) [Example 1, Racemic 5-(4-{2-[3-(Fluoromethyl)azetidin-1-yl]ethoxy}phenyl)-8-(trifluoromethyl)-5H-[1]benzopyrano[4,3-c]quinolin-2-ol]	no significant agonistic activity	–
Oc1ccc2c3c(cnc2c1)-c1ccc(C(F)(F)F)cc1OC3c1ccc(OCCN2CC(CF)C2)cc1 (single isomer, unassigned; isomer 1) [Example 1A, 5-(4-{2-[3-(Fluoromethyl)azetidin-1-yl]ethoxy}phenyl)-8-(trifluoromethyl)-5H-[1]benzopyrano[4,3-c]quinolin-2-ol, Isomer 1]	no significant agonistic activity	–
Oc1ccc2c3c(cnc2c1)-c1ccc(C(F)(F)F)cc1OC3c1ccc(OCCN2CC(CF)C2)cc1 (single isomer, unassigned; isomer 2) [Example 1B, 5-(4-{2-[3-(Fluoromethyl)azetidin-1-yl]ethoxy}phenyl)-8-(trifluoromethyl)-5H-[1]benzopyrano[4,3-c]quinolin-2-ol, Isomer 2]	no significant agonistic activity	~50%
